Several values for one entry are separate records, joined by “and”; a condition that tells them apart may be missing. Equal values may be shown once. Starred links: 1 amine or outer side, 2 acyl side, 3 side chain; linkers in the order of their positions; H or OH if unused. Positions of bridges follow the written chain, without caps; N, C: chain ends. Non-standard residues stand in square brackets, D forms with d. Residues, ends and D or L forms follow the SMILES beside them. Chains are numbered I, II in the order given. Actinocin(9to1) = Cc1c2oc3c(C)ccc(C(=O)[*:1])c3nc-2c(C(=O)[*:2])c(N)c1=O; NMeV = CN[C@H](C(=O)O)C(C)C; Sar = CNCC(=O)O
How the values were obtained:
DNA = conditions: literature values; cited from earlier work
plasmid DNA [1] = assay: Plasmid DNA breakage, ^124I/^125I double isotope experiments; format: biochemical
Description: In experiments exactly analogous to those described in Example 25, induction of DNA double-strand breaks was investigated for ^124I-iodoHoechst 33258. The results of preliminary experiments (to our knowledge the first such experiments done with DNA-associated ^124I) are shown in FIG. 15 and Table 4.

plasmid DNA [2] = assay: Plasmid DNA breakage, ^123I/^125I double isotope method; format: biochemical
Description: The experimental design exploits the plasmid DNA assay system, and agarose gel electrophoresis, as described previously to evaluate DNA breakage by the labelled minor groove binding DNA ligand, ^125I-iodoHoechst 33258 (Lobachevsky, Karagiannis and Martin 2004).
The accumulation of DNA single-stranded breaks and DNA double-stranded breaks is monitored by quantitation of the decline in the fraction of intact supercoiled plasmid (S), and the corresponding increase in the fractions of relaxed (R) and linear (L) species, with the progressive accumulation of decay events. Various assumptions enable the derivation of the relationship between the parameters S, R and L (or their normalised counterparts S′, R′ and L′), the number of decay events (n), and for example, the yield of double-stranded breaks per decay (d) of isotope in DNA-bound ligand. […] Accordingly, a double isotope strategy was developed, using a mixture of ^123I- and ^125I-iodoHoechst 33258. This approach yields a ratio d values, providing an estimate of the relative efficiency (^123I relative to ^125I) for double-strand breaks per decay, which is independent of f.
The basis of the double isotope method is apparent from the following relationship:
Where n1 is the number of ^123I decays, and n1m is the maximum (ie at time=infinity) number of ^123I decays.
A plot of the LHS term of the above equation versus n2 (the number of ^125I decay events in the incubation mixture) yields a two phase curve, the 2nd phase of which approaches a straight line (when n1=n1m). The values for the apparent breakage DNA dsb efficiency of ^123I and ^125I decays (da1 and da2, respectively) are obtained from the y intercept and from the gradient of the asymptote of the second phase of the curve, as shown in FIG. 14.
The apparent breakage efficiency is related to the actual efficiency of DNA-bound decay events, d, by the expression: da=df+δA
Where δA is the term for the “external” component of damage, arising from decay of non-DNA-bound isotope, which can be ignored because of the particular conditions of the
[formula] experiment, particularly, a low DNA concentration, A. Thus analysis of the data as exemplified in FIG. 14 provides the ratio of breakage efficiencies of ^123I versus ^125I decays.

K562 cells [3] = conditions: survival curve studies (Karagiannis, Lobachevsky and Martin 2000); cited from earlier work
K562 cells [4] = assay: Accumulation of cell-associated ^125I-activity in K562 cells; format: cell-based, human; conditions: 200 nM protein, 37° C.
Experimental: At the required time intervals (0-20 hours), the cell-associated and extracellular ^125I-ligands were separated by centrifugation at 400×g for 3 minutes and the cell-associated ^125I-activity and the ^125I-activity in the supernatants were counted in a […] (80% counting efficiency; Perkin Elmer Inc.). To elucidate whether the meta-^127I/^125I-iodoHoechst-transferrin conjugates were internalized specifically via transferrin receptor mediated endocytosis, assays were performed in parallel in the presence of 100-fold molar excess of unlabelled diferric transferrin.
In parallel with the experiment described in Example 19, cultures of K562 cells with one of the three labeled DNA ligand—transferring conjugates were incubated at 0° C., a condition that inhibits receptor-mediated endocytosis. Other assays were performed in parallel at 37° C. in the presence of the metabolic inhibitors […] (50 mM) and sodium azide (0.1% (w/v)), which are known to inhibit transferrin receptor mediated endocytosis (Ciechanover, et al. 1983).

K562 nuclei [5] = assay: Accumulation of nuclear-associated ^125I-activity in K562 nuclei; format: cell-based, human; conditions: 200 nM protein, 37° C.
Experimental: After incubation for 5 minutes at 0° C., an equal volume of hypotonic buffer containing 1% (v/v) Triton X-100 was added while vortexing, and the cells were sheared by passage through a 22-gauge needle. The nuclei were separated from the cytosol by centrifugation at 1000×g for 10 minutes and the nuclear preparations were washed in hypotonic buffer and pipetted to avoid clumping. The concentration of nuclei isolated from each sample was determined by counting with a hemocytometer and the nuclear- and cytoplasm-associated ^125I-activity was determined by β-counting. In parallel assays, the nuclei were washed with 10 mM Tris-HCl, 140 mM NaCl, pH 8.3 (isotonic buffer) by centrifugation at 1000×g for 10 minutes and the nuclear associated ^125I-activity and the ^125I-activity in the supernatants was determined by β-counting.

K562 cells [6] = assay: Clonogenic survival of K562 cells after ^125I-ligand incubation; format: cell-based, human; conditions: 20 hours at 37° C., 200 nM protein
Experimental: K562 cells were washed three times in serum-free RPMI 1640 containing 20 mM HEPES and 80 I.U./ml gentamicin. In the representative experiment, cells (5×10^5 per ml) were incubated with a series of radioactive doses of ^125I-diferric transferrin (highest dose 3.8 μCi/ml; specific activity 18.9 Ci/mmole, 200 nM protein concentration) or with a series of radioactive doses of the required meta-^127I/^125I-iodoHoechst-transferrin conjugate (highest doses 17.5, 10.1 and 18.3 μCi/ml, specific activities 87.5, 53.3 and 98 Ci/mmole protein for the disulphide, acylhydrazone and amide linked meta-^127I/^125I-iodoHoechst-transferrin conjugates, respectively, protein concentration 200 nM, conjugation number 2.8, 2.9 and 3.1 for the disulphide, acylhydrazone and amide linked conjugates, respectively) for 20 hours at 37° C. To ensure that cytotoxicity was mediated by decay of ^125I, control assays were performed in parallel with unlabelled meta-^127I-iodoHoechst-transferrin conjugates. Furthermore, to determine whether the ^125I-induced cytotoxicity was mediated by transferrin receptor-mediated endocytosis, control assays were performed in parallel in the presence of a 50-fold molar excess of unlabelled diferric transferrin. Following incubation, the cell-pellets were isolated by centrifugation at 400×g for 3 minutes and suspended in the α-modification of Eagle's medium containing 20% (v/v) fetal bovine serum, 20 mM HEPES, 2 mM L-glutamine and 80 I.U./ml gentamicin. An appropriate cell number from each of the samples was then cloned in semi-solid (0.33% (w/v)) noble agar in 6-well microtiter plates.

K562 nuclei [7] = assay: Nuclear fluorescence of K562 cells after photolytic deiodination (quantitative fluorescence microscopy); format: cell-based, human
Experimental: The delivery of ortho-iodoHoechst to K562 nuclei following incubation of cells with the acylhydrazone linked transferrin-ortho-iodoHoechst conjugate was examined by quantitative fluorescence microscopy, after photolytic deiodination. K562 cells in RPMI 1640 containing 3% FBS, 20 mM HEPES and 80 I.U./ml gentamicin were incubated with the acylhydrazone linked conjugate ([…], conjugation number 1.5) for 24 hours at 37° C. Following incubation the cells were irradiated with 200 Jm^−2 UVA to generate in situ the dehalogenated ligand, which is much more fluorescent than the iodinated ligand. The cells were then washed by centrifugation and the cell-pellet was resuspended in 50 μl PBS without Ca^2+/Mg^2+. Aliquots (20 μl) were placed onto microscope slides and were allowed to air-dry. Prior to microscopy a drop of 30% PBS and 100 μM dithiothreitol in Tissuetek was added to the cells. K562 cells were observed using a fluorescence microscope (Zeiss) and a standard Hoechst filter set. Analysis of nuclear fluorescence was performed using a Bio-Rad Molecular Imager® Fx (Bio-Rad Laboratories, Hercules, Calif., USA) and Quantity One™ 4.1.1 software.

[8] = incubation period between 4-20 hours

Cc1c2oc3c(C)ccc(C(=O)N[C@@H]4C(=O)N[C@H](C(C)C)C(=O)N5CCC[C@H]5C(=O)N(C)CC(=O)N(C)[C@@H](C(C)C)C(=O)O[C@@H]4C)c3nc-2c(C(=O)N[C@@H]2C(=O)N[C@H](C(C)C)C(=O)N3CCC[C@H]3C(=O)N(C)CC(=O)N(C)[C@@H](C(C)C)C(=O)O[C@@H]2C)c(N)c1=O [Actinomycin D] (I: T[dV]P[Sar][NMeV] / II: T[dV]P[Sar][NMeV]; ester I:1-I:C, II:1-II:C; linker I:N-II:N via Actinocin(9to1))
association constant for equilibrium binding to DNA (affinity) (DNA): about 10^6 M^−1

CN1CCN(c2ccc3nc(-c4ccc5nc(-c6ccc(O)c(I)c6)[nH]c5c4)[nH]c3c2)CC1 [^124I-iodoHoechst 33258]
efficiency of DNA-associated decays in DNA double-strand break induction (plasmid DNA [1]; compared with the ^123I counterpart): at least as efficient as those of the ^123I counterpart
da1(^124I)/da2(^125I) (plasmid DNA [1]; preliminary experiments): 0.76 and 0.71 and 0.82 and 0.75
Average da1(^124I)/da2(^125I) (plasmid DNA [1]; samples A2, A3, B1, B2): 0.76 ± 0.05

CN1CCN(c2ccc3nc(-c4ccc5nc(-c6ccc(O)c(I)c6)[nH]c5c4)[nH]c3c2)CC1 [^125I-iodoHoechst 33258, reference compound]
da2(^125I), apparent DNA dsb breakage efficiency (plasmid DNA [2]; DMSO added to 10% (D series)): 0.252 and 0.248 and 0.258
da2(^125I), apparent DNA dsb breakage efficiency (plasmid DNA [2]; aqueous buffer (N series)): 0.413 and 0.397 and 0.474
decays corresponding to a lethal event (K562 cells [3]): about 130 ^125I decays per nucleus

COc1cccc2c1C(=O)c1c(O)c3c(c(O)c1C2=O)C[C@@](O)(C(=O)CO)C[C@@H]3O[C@H]1C[C@H](N)[C@H](O)[C@H](C)O1 [doxorubicin]
association constant for equilibrium binding to DNA (affinity) (DNA): about 10^6 M^−1

^125I-transferrin: ^125I-labelled human diferric transferrin, unconjugated comparator [reference compound]
rate of increase of cell-associated ^125I-activity (K562 cells [4]; after first 2 hours until approximately 4-5 hours): approximately 0.8 fmoles ^125I-ligand/cell/minute
rate of increase of cell-associated ^125I-activity (K562 cells [4]; approximately the first 2 hours of incubation): approximately 5.2 fmoles ^125I-ligand/cell/minute
rate of decrease in cell-associated ^125I-activity (K562 cells [4]; incubation period between 5-20 hours): approximately 0.2 fmoles ^125I-ligand/cell/minute
accumulation of ^125I-activity in the nuclei (K562 nuclei [5]): not observed
dose required to produce on average one lethal event per cell (D37) (K562 cells [6]): 31.8 μCi/ml

acylhydrazone linked meta-^127I/^125I-iodoHoechst-transferrin conjugate: meta-^127I/^125I-iodoHoechst conjugated to thiolated transferrin via an acylhydrazone linkage (Example 15, FIG. 3)
rate of increase of cell-associated ^125I-activity (K562 cells [4]; first 4 hours of incubation): ~10.4 fmoles ^125I-ligand/cell/minute
rate of increase of cell-associated ^125I-activity (K562 cells [4]; [8]): ~5.7 fmoles ^125I-ligand/cell/minute
rate of increase of nuclear-associated ^125I-activity (K562 nuclei [5]): 0.38 fmole ^125I-ligand/cell/minute
dose required to produce on average one lethal event per cell (D37) (K562 cells [6]): 3.8 μCi/ml

acylhydrazone linked transferrin-ortho-iodoHoechst conjugate: transferrin linked to ortho-iodoHoechst via an acylhydrazone linkage, conjugation number 1.5
nuclear fluorescence in K562 cell nuclei (K562 nuclei [7]; conjugation number 1.5, 24 hours at 37° C., then 200 Jm^−2 UVA): significant fluorescence
inhibition of nuclear fluorescence (K562 nuclei [7]; in the presence of 100-fold molar excess unmodified transferrin): largely inhibited

amide linked meta-^127I/^125I-iodoHoechst-transferrin conjugate: meta-^127I/^125I-iodoHoechst conjugated to transferrin via an amide linkage (Example 16, FIG. 4)
rate of increase of cell-associated ^125I-activity (K562 cells [4]; first 4 hours of incubation): ~3.6 fmoles ^125I-ligand/cell/minute
rate of increase of cell-associated ^125I-activity (K562 cells [4]; [8]): ~2.6 fmoles ^125I-ligand/cell/minute
rate of increase of nuclear-associated ^125I-activity (K562 nuclei [5]): 0.13 fmole ^125I-ligand/cell/minute
dose required to produce on average one lethal event per cell (D37) (K562 cells [6]): 8.9 μCi/ml

disulphide linked meta-^127I/^125I-iodoHoechst-transferrin conjugate: meta-^127I/^125I-iodoHoechst conjugated to thiolated transferrin via a disulphide linkage (Example 14, FIG. 2)
rate of increase of cell-associated ^125I-activity (K562 cells [4]; first 4 hours of incubation): approximately 7.2 fmoles ^125I-ligand/cell/minute
rate of increase of cell-associated ^125I-activity (K562 cells [4]; [8]): approximately 6.1 fmoles ^125I-ligand/cell/minute
rate of increase of nuclear-associated ^125I-activity (K562 nuclei [5]): 0.21 fmole ^125I-ligand/cell/minute
dose required to produce on average one lethal event per cell (D37) (K562 cells [6]): 6.0 μCi/ml

From patent publication US8097238B2, “Cell targeting conjugates” (Peter MacCallum Cancer Institute, priority 2004, dated 2012)
